Results as given in EPA's CvTdb concentration-time database.

Assays:
rat [1] = test: concentration in blood after dosing
rat [2] = test: concentration in blood after dosing; settings: dosed: benzene, 40000 ppm, dermal, duration: 4 hr, male, F344
rat [3] = test: concentration in adipose after dosing; settings: dosed: benzene, 190 ppm, inhalation, duration: 6 hr, male, Fisher
rat [4] = test: concentration in blood after dosing; settings: dosed: benzene, 40000 ppm, dermal, duration: 4 hr, male, F344; remark: listed apart in the source
rat [5] = test: concentration in blood after dosing; settings: dosed: benzene, 40000 ppm, dermal, duration: 4 hr, male, F344; remark: listed apart in the source
rat [6] = test: concentration in blood after dosing; settings: dosed: benzene, 40000 ppm, dermal, duration: 4 hr, male, F344; remark: listed apart in the source

COc1ccccc1N=Nc1c(O)ccc2ccccc12 [Solvent red1]
rat [1], dosed: Solvent red1, 20 mg/kg, oral, Sprague Dawley
Settings | concentration in blood [ng/mL]
0.2399 h | 122
0.4077 h | 341
0.7668 h | 990
1.067 h | 510
1.606 h | 274
2.085 h | 139
2.561 h | 90.5
3.615 h | 46.4
4.567 h | 15.8
5.518 h | 10.3
7.58 h | 8.35
9.583 h | 4.6
13.09 h | 4.34
18.04 h | 1.27
24.03 h | 0.824
251 s | 2.62

c1ccccc1 [benzene]
Settings | concentration in adipose [ng/mL] | concentration in blood [ng/mL]
rat [2], 0.5 h | – | 7850
rat [2], 1 h | – | 8900
rat [2], 2 h | – | 10100
rat [2], 3 h | – | 10700
rat [2], 4 h | – | 11400
rat [3], 0.4898 h | 7580 | –
rat [3], 0.99 h | 19500 | –
rat [3], 1.49 h | 27500 | –
rat [3], 1.989 h | 34600 | –
rat [3], 3.993 h | 106000 | –
rat [3], 5.974 h | 159000 | –
rat [3], 6.485 h | 181000 | –
rat [3], 6.98 h | 142000 | –
rat [3], 7.478 h | 126000 | –
rat [3], 8.014 h | 95900 | –
rat [3], 8.509 h | 63800 | –
rat [3], 8.999 h | 70400 | –
rat [3], 10 h | 41500 | –
rat [3], 11.99 h | 13400 | –
rat [3], 15 h | 8140 | –
rat [4], 0.5 h | – | 8340
rat [4], 1 h | – | 10300
rat [4], 2 h | – | 13100
rat [4], 3 h | – | 12300
rat [4], 4 h | – | 11500
rat [5], 0.5 h | – | 7670
rat [5], 1 h | – | 8220
rat [5], 2 h | – | 9710
rat [5], 3 h | – | 10600
rat [5], 4 h | – | 11100
rat [6], 0.5 h | – | 10000
rat [6], 1 h | – | 9650
rat [6], 2 h | – | 9690
rat [6], 3 h | – | 12300
rat [6], 4 h | – | 10200

rat [1], dosed: benzene, 40000 ppm, dermal, duration: 4 hr, male, F344
Settings | concentration in blood [ng/mL]
0.5 h | 7380
1 h | 8530
2 h | 8050
3 h | 10400
4 h | 11700
